Measurements taken from US11186587B2, “Compound as ACC inhibitor and use thereof” (NANJING SANHOME PHARMACEUTICAL CO., LTD., priority 2017, dated 2021).

Tested on: HFD-CCL4 induced NASH model
Test: Drug efficacy on NASH and liver fibrosis induced by HFD-CCL4
Assay type: in vivo
Details: C57BL/6 mice, HFD 10 weeks + CCL4 4 weeks; intragastric once a day for 4 weeks; Example 25 10 mg/kg/d, ND-630 30 mg/kg/d; H&E staining
Protocol: High-fat diet (HFD) was used to induce liver steatosis in animals, and then carbon tetrachloride (CCL4) was used to induce liver inflammation, necrosis, and liver fibrosis. This model was similar to the human NASH disease process and pathological phenomenon. The purpose of this experiment was to evaluate the efficacy of the compound of the disclosure in a NASH model of C57BL/6 mice induced by HFD-CCL4, with ND-630 as a control compound. HFD-CCL4 inducement was performed for 10 weeks and drug intervention was performed for 4 weeks. The therapeutic effects of the drug on NASH and liver fibrosis were observed.
The test compounds in the examples of the present disclosure and ND-630 were diluted to 0.3 mg/mL, 1 mg/mL, 3 mg/mL with PEG200:0.2M Na2HPO4-NaH2PO4 buffer (35:65), which was prepared just before use.
HFD-CCL4 induced NASH model in C57BL/6 mice: the animals were first housed in the SPF barrier of the KCI Experimental Animal Center for 3-7 days, and then the animals were changed to HFD feeding in a cycle of 10 weeks. […]
The left liver lobe sample was fixed with 10% formalin and embedded in paraffin to prepare 5 μm sections for haematoxylin-eosin (H&E) staining. Hematoxylin-eosin staining can detect tissue inflammation, fat deposition, vacuolar degeneration and tissue fibrosis, giving semi-quantitative analysis for the lesion.
The data were expressed as mean±standard error. […]

## COc1ccccc1[C@H](Cn1c(=O)n(C(C)(C)C(=O)O)c(=O)c2c(C)c(-c3ncco3)sc21)OC1CCOCC1 [ND-630, 2-[1-[2-(2-methoxyphenyl)-2-(oxecyclo-4-yloxy)ethyl]-5-methyl-6-(1,3-oxazol-2-yl)-2,4-dioxo-1H,2H,3H,4H-thieno[2,3-d]pyrimidin-3-yl]-2-methylpropanoic acid, reference compound]
  Hepatic steatosis score (Mean ± SD): 0.13 ± 0.32
  Hepatocyte necrosis score (Mean ± SD): 1.00 ± 0.61
